The results in this text go back to patent US9682991B2, “Tricyclic compounds for use as kinase inhibitors” (FUNDACIÓN CENTRO NACIONAL DE INVESTIGACIONES ONCOLOGICAS …, priority 2009, dated 2017).

Molecules are shown by their SMILES. Where two headings read alike, the source gives them in different places.

For one test, the target named is PIM-2 (Homo sapiens (Human), UniProt Q9P1W9). Briefly: PIM-2 biochemical assay (ADP Hunter). Conditions: semi-quantitative; read-out: PIM2 IC50. An excerpt: The biochemical assay to measure PIM-2 activity relies on the ADP Hunter assay kit (DiscoveRx Corp., Cat. #90-0077), that determines the amount of ADP as direct product of the kinase enzyme activity.
PIM-2, sequence (Q9P1W9 whole entry): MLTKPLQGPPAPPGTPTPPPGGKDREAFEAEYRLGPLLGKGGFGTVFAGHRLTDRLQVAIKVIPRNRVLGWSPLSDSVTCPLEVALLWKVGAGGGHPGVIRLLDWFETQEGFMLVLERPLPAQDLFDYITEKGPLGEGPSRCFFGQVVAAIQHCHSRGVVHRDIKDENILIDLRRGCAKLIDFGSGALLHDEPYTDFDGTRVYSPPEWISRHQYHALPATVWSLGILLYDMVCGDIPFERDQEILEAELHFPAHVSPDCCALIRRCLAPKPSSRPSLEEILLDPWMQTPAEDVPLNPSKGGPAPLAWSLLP
Another test addresses PIM-1 (Homo sapiens (Human), UniProt P11309). Briefly: PIM-1 biochemical assay (ADP Hunter).
In a further test the target is PIM-3 (Homo sapiens (Human), UniProt Q86V86). Briefly: PIM-3 biochemical assay (ADP Hunter). Conditions: semi-quantitative; read-out: PIM3 IC50.
For test [1], the system named is Bad S112 phosphorylation in H1299 cells overexpressing Pim1 (H1299Pim1). Briefly: Bad S112 phosphorylation inhibition assay (In Cell ELISA). In kind it is cell-based. Conditions: Homo sapiens, NCI-H1299, semi-quantitative, read-out: EC50 BadP ELISA H1299 Pim1. How it is done:
Efficacy of compounds of the invention on the inhibition of Bad phosphorylation was measured by an In Cell ELISA. EC50 values were established for the tested compounds.
Cells: H1299 cells overexpressing Pim1 (H1299Pim1)
Cells were seeded in 15000 cells per 200 μl per well into 96-well plates and incubated for 16 h at 37° C., 5% CO2. On day two, nine serial 1:2 compound dilutions were made in DMSO in a 96-well plate. The compounds were added to duplicate wells in 96-well cell plates using a FX BECKMAN robot (Beckman Coulter) and incubated at 37° C. with CO2 atmosphere. After 4 hours, relative levels of Bad S112 phosphorylation were measured in Cell ELISA using SuperSignal ELISA Femto substrate (Pierce) and read on VICTOR (Perkin Elmer). EC50 values were calculated using ActivityBase from IDBS.

The mark [2] stands for this setting: read-out: PIM1 IC50, semi-quantitative.

PIM-1, sequence (P11309 whole entry): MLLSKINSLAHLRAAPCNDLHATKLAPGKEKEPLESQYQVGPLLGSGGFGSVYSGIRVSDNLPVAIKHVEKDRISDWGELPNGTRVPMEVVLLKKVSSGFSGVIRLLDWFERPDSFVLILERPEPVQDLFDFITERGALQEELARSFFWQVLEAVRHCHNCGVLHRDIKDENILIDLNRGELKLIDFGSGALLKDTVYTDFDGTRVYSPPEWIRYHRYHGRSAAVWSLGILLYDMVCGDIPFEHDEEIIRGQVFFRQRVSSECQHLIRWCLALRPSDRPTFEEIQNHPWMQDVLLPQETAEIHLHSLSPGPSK

For orientation: IC50 means the point on the concentration scale where inhibition reaches its midpoint. For the compound `CN1CCC(CNc2nn3c(-c4cccc(C(F)(F)F)c4)nnc3c3c2N(C)CCO3)CC1` [Example 32, (1-Methyl-piperidin-4-ylmethyl)-[6-methyl-3-(3-trifluoromethyl-phenyl)-7,8-dihydro-6H-9-oxa-1,2,3a,4,6-pentaaza-cyclopenta[a]naphthalen-5-yl]-amine], the values for the IC50 on PIM-2, on PIM-1 (setting [2]) and on PIM-3 were 100 to 1000 nM, less than 100 nM and less than 100 nM, respectively.
In general, EC50 refers to the concentration giving half of the maximal effect. Regarding `CN1CCC(Nc2nn3c(-c4cccc(OC(F)(F)F)c4)nnc3c3c2N(C)CCO3)CC1` [Example 2, (1-Methyl-piperidin-4-yl)-[6-methyl-3-(3-trifluoromethoxy-phenyl)-7,8-dihydro-6H-9-oxa-1,2,3a,4,6-pentaaza-cyclopenta[a]naphthalen-5-yl]-amine], the IC50 is 100 to 1000 nM on PIM-2, less than 100 nM at PIM-1 (setting [2]) and 100 to 1000 nM on PIM-3. In addition, the half-maximal effective concentration (EC50) in test [1] lay within 250 to 1000 nM.
Regarding `CN1CCOc2c1c(N1CC3(CCCNC3)C1)nn1c(-c3cccc(OC(F)(F)F)c3)nnc21` [Example 69, 5-(2,6-Diaza-spiro[3.5]non-2-yl)-6-methyl-3-(3-trifluoromethoxy-phenyl)-7,8-dihydro-6H-9-oxa-1,2,3a,4,6-pentaaza-cyclopenta[a]naphthalene], the IC50 on PIM-2 was 100 to 1000 nM; on PIM-1 (setting [2]) it was less than 100 nM. In addition, the EC50 in test [1] is less than 250 nM.
With `CN1CCOc2c(NC3CC4(CCNCC4)C3)nn3c(-c4cccc(OC(F)(F)F)c4)nnc3c21` [Example 65, (7-Aza-spiro[3.5]non-2-yl)-[9-methyl-3-(3-trifluoromethoxy-phenyl)-8,9-dihydro-7H-6-oxa-1,2,3a,4,9-pentaaza-cyclopenta[a]naphthalen-5-yl]-amine], the IC50 at PIM-1 (setting [2]) was less than 100 nM; at PIM-3 it was 100 to 1000 nM. Further, the EC50 in test [1] is 1000 to 10000 nM.
As to `CCN1CCOc2c1c(NCC1CCN(C)CC1)nn1c(-c3cccc(OC(F)(F)F)c3)nnc21` [Example 12, [6-Ethyl-3-(3-trifluoromethoxy-phenyl)-7,8-dihydro-6H-9-oxa-1,2,3a,4,6-pentaaza-cyclopenta[a]naphthalen-5-yl]-(1-methyl-piperidin-4-ylmethyl)-amine], the 50% inhibitory concentration (IC50) on PIM-1 (setting [2]) is less than 100 nM. In addition, the EC50 in test [1] was less than 250 nM.
Regarding `CN1CCC(CNc2nn3c(-c4cccc(N(C)C)c4)nnc3c3c2N(C)CCO3)CC1` [Example 34, [3-(3-Dimethylamino-phenyl)-6-methyl-7,8-dihydro-6H-9-oxa-1,2,3a,4,6-pentaaza-cyclopenta[a]naphthalen-5-yl]-(1-methyl-piperidin-4-ylmethyl)-amine], the values for the IC50 on PIM-2, at PIM-1 (setting [2]) and at PIM-3 were greater than 1000 nM, less than 100 nM and 100 to 1000 nM, respectively. The EC50 in test [1] is 1000 to 10000 nM.
As to `CN1CCOc2c1c(NC1CC3(CCNCC3)C1)nn1c(-c3cccc(OC(F)(F)F)c3)nnc21` [Example 49, (7-Aza-spiro[3.5]non-2-yl)-[6-methyl-3-(3-trifluoromethoxy-phenyl)-7,8-dihydro-6H-9-oxa-1,2,3a,4,6-pentaaza-cyclopenta[a]naphthalen-5-yl]-amine], the 50% inhibitory concentration (IC50) on PIM-1 (setting [2]) was less than 100 nM. Also, the 50% effective concentration (EC50) in test [1] is 250 to 1000 nM.
For `CCN1CCC(CNc2nn3c(-c4cccc(OC(F)(F)F)c4)nnc3c3c2N(C)CCO3)CC1` [Example 91, (1-Ethyl-piperidin-4-ylmethyl)-[6-methyl-3-(3-trifluoromethoxy-phenyl)-7,8-dihydro-6H-9-oxa-1,2,3a,4,6-pentaaza-cyclopenta[a]naphthalen-5-yl]-amine], the EC50 in test [1] lay within 250 to 1000 nM.
In the case of `CN1CCC(CNc2nn3c(-c4cccc(OC(F)(F)F)c4)nnc3c3c2OCC(C)(C)N3C)CC1` [Example 72, (1-Methyl-piperidin-4-ylmethyl)-[8,8,9-trimethyl-3-(3-trifluoromethoxy-phenyl)-8,9-dihydro-7H-6-oxa-1,2,3a,4,9-pentaaza-cyclopenta[a]naphthalen-5-yl]-amine], the IC50 on PIM-2 is greater than 1000 nM; against PIM-1, 100 to 1000 nM; at PIM-3, 100 to 1000 nM.
In the case of `CN1CCOc2c1c(NCC1CC3(CCNCC3)C1)nn1c(-c3cccc(OC(F)(F)F)c3)nnc21` [Example 59], in test [1], the EC50 lay within 250 to 1000 nM.
In the case of `CC(C)NCC1CCN(c2nn3c(-c4cccc(OC(F)(F)F)c4)nnc3c3c2N(C)CCO3)CC1` [Example 85, Isopropyl-{1-[6-methyl-3-(3-trifluoromethoxy-phenyl)-7,8-dihydro-6H-9-oxa-1,2,3a,4,6-pentaaza-cyclopenta[a]naphthalen-5-yl]-piperidin-4-ylmethyl}-amine], the half-maximal inhibitory concentration (IC50) is 100 to 1000 nM on PIM-2, less than 100 nM on PIM-1 (setting [2]) and 100 to 1000 nM on PIM-3.
As to `CN1CCOc2c1c(NCCN1CCOCC1)nn1c(-c3cccc(OC(F)(F)F)c3)nnc21` [Example 29, [6-Methyl-3-(3-trifluoromethoxy-phenyl)-5,6,7,8-tetrahydro-9-oxa-1,2,3a,4,6-pentaaza-cyclopenta[a]naphthalen-5-yl]-(2-morpholin-4-yl-ethyl)-amine], the concentration for half-maximal inhibition (IC50) at PIM-2 and at PIM-3 was 100 to 1000 nM each time. For the same compound, in test [1], the EC50 is less than 250 nM.
`CN1CCC(CNc2nn3c(-c4cccc(OC(F)(F)F)c4)nnc3c3c2CCCC3)CC1` [Example 37, (1-Methyl-piperidin-4-ylmethyl)-[3-(3-trifluoromethoxy-phenyl)-7,8,9,10-tetrahydro-[1,2,4]triazolo[3,4-a]phthalazin-6-yl]-amine]: the EC50 in test [1] lay within 1000 to 10000 nM.
Take `CN1CCOc2c1c(NCC13CCN(CC1)C3)nn1c(-c3cccc(OC(F)(F)F)c3)nnc21` [Example 54, (1-Aza-bicyclo[2.2.1]hept-4-ylmethyl)-[6-methyl-3-(3-trifluoromethoxy-phenyl)-7,8-dihydro-6H-9-oxa-1,2,3a,4,6-pentaaza-cyclopenta[a]naphthalen-5-yl]-amine]: the EC50 in test [1] is 250 to 1000 nM.
In the case of `CN1CCOc2c1c(NCc1ccc(F)cc1)nn1c(-c3cccc(OC(F)(F)F)c3)nnc21` [Example 9, (4-Fluoro-benzyl)-[6-methyl-3-(3-trifluoromethoxy-phenyl)-7,8-dihydro-6H-9-oxa-1,2,3a,4,6-pentaaza-cyclopenta[a]naphthalen-5-yl]-amine], the IC50 on PIM-2 is greater than 1000 nM; against PIM-1, less than 100 nM; on PIM-1 (read-out: PIM1 IC50), 52.4 nM. The EC50 in test [1] was 1000 to 10000 nM.
With `CN1CCOc2c1c(NCCCO)nn1c(-c3cccc(OC(F)(F)F)c3)nnc21` [Example 21, 3-[6-Methyl-3-(3-trifluoromethoxy-phenyl)-7,8-dihydro-6H-9-oxa-1,2,3a,4,6-pentaaza-cyclopenta[a]naphthalen-5-ylamino]-propan-1-ol], the results for the IC50 on PIM-2, at PIM-1 (setting [2]) and at PIM-3 were 100 to 1000 nM, less than 100 nM and 100 to 1000 nM, respectively.
Take `CN1CCC(CNc2nn3c(-c4ccc(F)cc4)nnc3c3c2N(C)CCO3)CC1` [Example 100, [3-(4-Fluoro-phenyl)-6-methyl-7,8-dihydro-6H-9-oxa-1,2,3a,4,6-pentaaza-cyclopenta[a]naphthalen-5-yl]-(1-methyl-piperidin-4-ylmethyl)-amine]: the IC50 is greater than 1000 nM on PIM-2, 100 to 1000 nM against PIM-1 and 181 nM at PIM-1 (read-out: PIM1 IC50). For the same compound, the EC50 in test [1] was in the range of 1000 to 10000 nM.
For `CN1CCOc2c1c(NC1CCOCC1)nn1c(-c3cccc(OC(F)(F)F)c3)nnc21` [Example 23, [6-Methyl-3-(3-trifluoromethoxy-phenyl)-7,8-dihydro-6H-9-oxa-1,2,3a,4,6-pentaaza-cyclopenta[a]naphthalen-5-yl]-(tetrahydro-pyran-4-yl)-amine], the figures for the IC50 at PIM-2, on PIM-1 (setting [2]) and on PIM-3 were less than 100 nM, less than 100 nM and 100 to 1000 nM, respectively.
For `CN(CCN1CCOCC1)c1nn2c(-c3cccc(OC(F)(F)F)c3)nnc2c2c1N(C)CCO2` [Example 98, Methyl-[6-methyl-3-(3-trifluoromethoxy-phenyl)-7,8-dihydro-6H-9-oxa-1,2,3a,4,6-pentaaza-cyclopenta[a]naphthalen-5-yl]-(2-morpholin-4-yl-ethyl)-amine], the IC50 on PIM-2 is 100 to 1000 nM; on PIM-1 (setting [2]) it was less than 100 nM; at PIM-3 it was 100 to 1000 nM.
Turning to `CN1CCOc2c1c(N1CCCC3(CCCN3)CC1)nn1c(-c3cccc(OC(F)(F)F)c3)nnc21` (stereo not drawn) [Example 60, 5-(1,8-Diaza-spiro[4.6]undec-8-yl)-6-methyl-3-(3-trifluoromethoxy-phenyl)-7,8-dihydro-6H-9-oxa-1,2,3a,4,6-pentaaza-cyclopenta[a]naphthalene], the IC50 at PIM-2 is 100 to 1000 nM; at PIM-1 (setting [2]) it was less than 100 nM. Besides, the EC50 in test [1] is less than 250 nM.
Consider `CN1CCOc2c1c(N(C)C1CCOCC1)nn1c(-c3cccc(OC(F)(F)F)c3)nnc21` [Example 97, Methyl-[6-methyl-3-(3-trifluoromethoxy-phenyl)-7,8-dihydro-6H-9-oxa-1,2,3a,4,6-pentaaza-cyclopenta[a]naphthalen-5-yl]-(tetrahydro-pyran-4-yl)-amine], for which the figures for the IC50 at PIM-2, at PIM-1 (setting [2]) and on PIM-3 were 100 to 1000 nM, less than 100 nM and less than 100 nM, respectively.
